Measurements taken from the NIST ThermoML archive (doi:10.1016/j.jct.2006.01.012).

Assay: xn = mol fraction of the nth substance listed
Conditions: Liquid; for mass density: isochoric method; for viscosity: Capillary tube (Ostwald / Ubbelohde) method

CCCCCCCC [octane] + CCCCCCC
Conditions	mass density [kg/m3]	viscosity [mPa·s]
293.15 K, 100 kPa, x2 = 0.2808	697.8	–
293.15 K, 100 kPa, x2 = 0.5427	693.2	–
293.15 K, 100 kPa, x2 = 0.7906	688.3	–
298.15 K, 100 kPa, x2 = 0.2808	694	–
298.15 K, 100 kPa, x2 = 0.5427	689.2	0.436
298.15 K, 100 kPa, x2 = 0.7906	684.2	–
298.15 K, 5000 kPa, x2 = 0.5427	–	0.461
298.15 K, 10000 kPa, x2 = 0.5427	–	0.487
298.22 K, 100 kPa, x2 = 0.7906	–	0.408
298.22 K, 5000 kPa, x2 = 0.7906	–	0.435
298.22 K, 10000 kPa, x2 = 0.7906	–	0.459
298.39 K, 100 kPa, x2 = 0.2808	–	0.467
298.39 K, 5000 kPa, x2 = 0.2808	–	0.493
298.39 K, 10000 kPa, x2 = 0.2808	–	0.521
299.24 K, 3824 kPa, x2 = 0.5427	691.8	–
299.24 K, 6865 kPa, x2 = 0.5427	694.6	–
299.24 K, 9316 kPa, x2 = 0.5427	696.4	–
303.15 K, 100 kPa, x2 = 0.2808	689.9	–
303.15 K, 100 kPa, x2 = 0.5427	685	–
303.15 K, 100 kPa, x2 = 0.7906	680.1	–
303.39 K, 100 kPa, x2 = 0.5427	–	0.414
303.39 K, 5000 kPa, x2 = 0.5427	–	0.435
303.39 K, 10000 kPa, x2 = 0.5427	–	0.459
303.85 K, 100 kPa, x2 = 0.2808	–	0.441
303.85 K, 5000 kPa, x2 = 0.2808	–	0.465
303.85 K, 10000 kPa, x2 = 0.2808	–	0.492
305.74 K, 100 kPa, x2 = 0.7906	–	0.379
305.74 K, 5000 kPa, x2 = 0.7906	–	0.402
305.74 K, 10000 kPa, x2 = 0.7906	–	0.425
306.18 K, 2942 kPa, x2 = 0.2808	690.3	–
306.18 K, 7021 kPa, x2 = 0.2808	693.8	–
306.18 K, 8826 kPa, x2 = 0.2808	695.3	–
307.62 K, 2608 kPa, x2 = 0.7906	678.6	–
307.62 K, 7178 kPa, x2 = 0.7906	683	–
307.62 K, 9140 kPa, x2 = 0.7906	684.6	–
308.15 K, 100 kPa, x2 = 0.2808	686.1	–
308.15 K, 100 kPa, x2 = 0.5427	680.9	–
308.15 K, 100 kPa, x2 = 0.7906	675.9	–
312.71 K, 100 kPa, x2 = 0.2808	–	0.4
312.71 K, 5000 kPa, x2 = 0.2808	–	0.424
312.71 K, 10000 kPa, x2 = 0.2808	–	0.446
312.74 K, 100 kPa, x2 = 0.5427	–	0.374
312.74 K, 5000 kPa, x2 = 0.5427	–	0.396
312.74 K, 10000 kPa, x2 = 0.5427	–	0.419
312.75 K, 100 kPa, x2 = 0.7906	–	0.352
312.75 K, 5000 kPa, x2 = 0.7906	–	0.373
312.75 K, 10000 kPa, x2 = 0.7906	–	0.395
313.15 K, 100 kPa, x2 = 0.2808	681.6	–
313.15 K, 100 kPa, x2 = 0.5427	676.6	–
313.15 K, 100 kPa, x2 = 0.7906	671.6	–
318.15 K, 100 kPa, x2 = 0.2808	677.4	–
318.15 K, 100 kPa, x2 = 0.5427	672.7	–
318.15 K, 100 kPa, x2 = 0.7906	667.3	–
321.21 K, 100 kPa, x2 = 0.5427	–	0.338
321.21 K, 5000 kPa, x2 = 0.5427	–	0.359
321.21 K, 10000 kPa, x2 = 0.5427	–	0.38
321.71 K, 100 kPa, x2 = 0.2808	–	0.362
321.71 K, 5000 kPa, x2 = 0.2808	–	0.384
321.71 K, 10000 kPa, x2 = 0.2808	–	0.405
323.15 K, 100 kPa, x2 = 0.2808	673.2	–
323.15 K, 100 kPa, x2 = 0.5427	668.5	–
323.15 K, 100 kPa, x2 = 0.7906	663	–
323.82 K, 100 kPa, x2 = 0.7906	–	0.314
323.82 K, 5000 kPa, x2 = 0.7906	–	0.334
323.82 K, 10000 kPa, x2 = 0.7906	–	0.353
331.45 K, 4121 kPa, x2 = 0.7906	658.7	–
331.45 K, 6311 kPa, x2 = 0.7906	662.6	–
331.45 K, 8523 kPa, x2 = 0.7906	665.5	–
331.45 K, 10350 kPa, x2 = 0.7906	667.1	–
331.55 K, 4119 kPa, x2 = 0.5427	665	–
331.55 K, 5944 kPa, x2 = 0.5427	668.1	–
331.55 K, 8203 kPa, x2 = 0.5427	670.9	–
331.55 K, 10100 kPa, x2 = 0.5427	672.6	–
333.15 K, 100 kPa, x2 = 0.2808	664.9	–
333.15 K, 100 kPa, x2 = 0.5427	659.9	–
333.15 K, 100 kPa, x2 = 0.7906	654.4	–
333.54 K, 100 kPa, x2 = 0.2808	–	0.322
333.54 K, 5000 kPa, x2 = 0.2808	–	0.341
333.54 K, 10000 kPa, x2 = 0.2808	–	0.36
333.73 K, 100 kPa, x2 = 0.5427	–	0.3
333.73 K, 5000 kPa, x2 = 0.5427	–	0.319
333.73 K, 10000 kPa, x2 = 0.5427	–	0.338
335.62 K, 100 kPa, x2 = 0.7906	–	0.281
335.62 K, 5000 kPa, x2 = 0.7906	–	0.298
335.62 K, 10000 kPa, x2 = 0.7906	–	0.316
338.15 K, 100 kPa, x2 = 0.2808	661	–
338.15 K, 100 kPa, x2 = 0.5427	655.6	–
338.15 K, 100 kPa, x2 = 0.7906	650.1	–
343.15 K, 100 kPa, x2 = 0.2808	656.8	–
343.15 K, 100 kPa, x2 = 0.5427	651.2	–
343.15 K, 100 kPa, x2 = 0.7906	645.6	–
344.21 K, 100 kPa, x2 = 0.7906	–	0.26
344.21 K, 5000 kPa, x2 = 0.7906	–	0.276
344.21 K, 10000 kPa, x2 = 0.7906	–	0.292
344.39 K, 100 kPa, x2 = 0.2808	–	0.291
344.39 K, 5000 kPa, x2 = 0.2808	–	0.308
344.39 K, 10000 kPa, x2 = 0.2808	–	0.325
344.4 K, 100 kPa, x2 = 0.5427	–	0.273
344.4 K, 5000 kPa, x2 = 0.5427	–	0.29
344.4 K, 10000 kPa, x2 = 0.5427	–	0.307
352.61 K, 2844 kPa, x2 = 0.5427	648	–
352.61 K, 8237 kPa, x2 = 0.5427	654.9	–
352.61 K, 10040 kPa, x2 = 0.5427	657	–
352.62 K, 100 kPa, x2 = 0.5427	–	0.255
352.62 K, 5000 kPa, x2 = 0.5427	–	0.27
352.62 K, 10000 kPa, x2 = 0.5427	–	0.286
353.2 K, 100 kPa, x2 = 0.7906	–	0.239
353.2 K, 5000 kPa, x2 = 0.7906	–	0.255
353.2 K, 10000 kPa, x2 = 0.7906	–	0.27
354.08 K, 100 kPa, x2 = 0.2808	–	0.267
354.08 K, 5000 kPa, x2 = 0.2808	–	0.283
354.08 K, 10000 kPa, x2 = 0.2808	–	0.299
357.15 K, 100 kPa, x2 = 0.2808	644.3	–
357.15 K, 100 kPa, x2 = 0.5427	638.8	–
357.15 K, 100 kPa, x2 = 0.7906	633	–
362.65 K, 4800 kPa, x2 = 0.2808	646.1	–
362.65 K, 6720 kPa, x2 = 0.2808	649	–
362.65 K, 9300 kPa, x2 = 0.2808	652.5	–
363.71 K, 100 kPa, x2 = 0.2808	–	0.245
363.71 K, 5000 kPa, x2 = 0.2808	–	0.261
363.71 K, 10000 kPa, x2 = 0.2808	–	0.276
363.74 K, 100 kPa, x2 = 0.5427	–	0.232
363.74 K, 5000 kPa, x2 = 0.5427	–	0.247
363.74 K, 10000 kPa, x2 = 0.5427	–	0.26
364.62 K, 100 kPa, x2 = 0.7906	–	0.216
364.62 K, 5000 kPa, x2 = 0.7906	–	0.232
364.62 K, 10000 kPa, x2 = 0.7906	–	0.246
365.46 K, 3432 kPa, x2 = 0.7906	631.8	–
365.46 K, 8983 kPa, x2 = 0.7906	639.4	–
365.46 K, 9963 kPa, x2 = 0.7906	640.9	–
